From patent US20260184706A1, “PHENYLSULFONAMIDE DERIVATIVES, PREPARATION METHOD THEREFOR, AND PHARMACEUTICAL COMPOSITION FOR PREVENTION OR TREATMENT OF CANCER CONTAINING SAME AS ACTIVE INGREDIENT” (Korea Research Institute of Chemical Technology, priority 2022, published 2026)

What was measured:
[1] = target: recombinant human PKR protein (Homo sapiens, UniProt P19525); experiment: Protein kinase R (PKR) inhibitory capacity, 33P-ATP filter assay; assay type: biochemical; details: 15 uM [gamma-33P-ATP], 40 minutes, room temperature
Sequence of recombinant human PKR protein (P19525 whole entry): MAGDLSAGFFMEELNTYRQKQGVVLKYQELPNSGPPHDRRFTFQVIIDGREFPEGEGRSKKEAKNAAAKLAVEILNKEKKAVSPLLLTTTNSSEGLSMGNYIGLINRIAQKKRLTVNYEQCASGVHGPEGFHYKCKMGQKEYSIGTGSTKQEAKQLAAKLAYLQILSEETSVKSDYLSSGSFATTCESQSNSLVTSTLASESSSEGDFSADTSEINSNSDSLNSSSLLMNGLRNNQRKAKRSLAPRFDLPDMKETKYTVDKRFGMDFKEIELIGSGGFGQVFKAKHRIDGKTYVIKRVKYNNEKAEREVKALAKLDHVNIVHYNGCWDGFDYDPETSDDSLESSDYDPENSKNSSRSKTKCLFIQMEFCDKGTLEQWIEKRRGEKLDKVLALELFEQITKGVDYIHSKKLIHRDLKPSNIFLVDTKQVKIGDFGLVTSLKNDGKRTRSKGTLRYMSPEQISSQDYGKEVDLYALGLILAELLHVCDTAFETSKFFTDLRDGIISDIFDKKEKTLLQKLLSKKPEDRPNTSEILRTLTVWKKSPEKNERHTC
Method: <Experimental Example 4> Evaluation of Protein Kinase R (PKR) Inhibitory Capacity
A recombinant human PKR protein was mixed with the compound in a reaction solution (8 mM MOPS pH 7.0, 0.2 mM EDTA, 20 uM RSRSRSRSRSRSRSR, 10 mM Magnesium acetate, 15 uM [gamma-33P-ATP]) and reacted at room temperature for 40 minutes. Then, the reaction was terminated by adding phosphoric acid (0.5%) to the reaction mixture, and 10 ul of the reaction solution was dropped onto a P30 filter. The filter was washed four times in a 0.425% phosphoric acid solution for 4 minutes, then washed once more in methanol, dried, and the PKR activity was measured by scintillation counting. […] The compound was diluted by 1/3 from the highest concentration of 1 uM and treated with a total of 9 concentrations to evaluate the degree of inhibition.

[2] = target: T1, recombinant human PERK protein (Homo sapiens, UniProt Q9NZJ5); experiment: PKR-like endoplasmic reticulum kinase (PERK) inhibitory capacity, 33P-ATP filter assay; assay type: biochemical; details: 15 uM [gamma-33P-ATP], 40 minutes, room temperature
T1 sequence (Q9NZJ5 30-1116): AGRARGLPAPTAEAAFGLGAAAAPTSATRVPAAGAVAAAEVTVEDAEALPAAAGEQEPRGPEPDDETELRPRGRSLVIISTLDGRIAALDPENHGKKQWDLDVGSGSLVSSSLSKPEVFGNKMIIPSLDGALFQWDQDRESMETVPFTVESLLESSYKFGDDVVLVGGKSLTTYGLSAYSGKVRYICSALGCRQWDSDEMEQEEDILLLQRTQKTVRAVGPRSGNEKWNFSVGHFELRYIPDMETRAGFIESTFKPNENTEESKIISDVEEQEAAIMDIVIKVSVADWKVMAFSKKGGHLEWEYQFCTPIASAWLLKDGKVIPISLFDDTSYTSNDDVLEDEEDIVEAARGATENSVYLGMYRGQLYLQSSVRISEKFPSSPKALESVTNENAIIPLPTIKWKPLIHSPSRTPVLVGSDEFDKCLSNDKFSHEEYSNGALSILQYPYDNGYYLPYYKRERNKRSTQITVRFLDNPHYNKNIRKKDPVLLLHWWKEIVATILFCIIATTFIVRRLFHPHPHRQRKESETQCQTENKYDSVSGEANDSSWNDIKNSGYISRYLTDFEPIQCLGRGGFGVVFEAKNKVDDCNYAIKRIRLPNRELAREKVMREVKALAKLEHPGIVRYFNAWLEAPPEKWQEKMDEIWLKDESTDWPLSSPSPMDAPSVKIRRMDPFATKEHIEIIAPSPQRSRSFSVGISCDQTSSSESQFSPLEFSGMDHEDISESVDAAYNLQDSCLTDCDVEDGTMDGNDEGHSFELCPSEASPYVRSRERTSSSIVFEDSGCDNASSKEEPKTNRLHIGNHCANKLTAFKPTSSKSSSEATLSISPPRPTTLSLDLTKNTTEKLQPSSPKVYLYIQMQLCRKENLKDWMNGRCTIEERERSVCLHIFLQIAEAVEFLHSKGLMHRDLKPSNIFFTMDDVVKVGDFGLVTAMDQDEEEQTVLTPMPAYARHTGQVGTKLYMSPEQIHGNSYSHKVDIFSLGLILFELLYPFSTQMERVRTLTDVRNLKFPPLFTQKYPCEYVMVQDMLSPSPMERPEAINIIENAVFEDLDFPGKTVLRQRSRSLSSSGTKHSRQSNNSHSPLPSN

IC50 [1]	IC50 [2]	Compound
0.3 to 1 µM	< 0.1 µM	COc1ncc(Cl)cc1S(=O)(=O)Nc1ccc(F)c(-n2cc(C(F)F)c3nc(N)ncc3c2=O)c1F [Example 22, N-(3-(2-amino-8-(difluoromethyl)-5-oxopirido[4,3-d]pyrimidin-6(5H)-yl)-2,4-difluorophenyl)-5-chloro-2-methoxypyridine-3-sulfonamide]
> 1 µM	< 0.1 µM	Nc1ncc2c(=O)n(-c3c(F)ccc(NS(=O)(=O)c4cc(Cl)cnc4Cl)c3F)ccc2n1 [Example 27, N-(3-(2-amino-5-oxopirido[4,3-d]pyrimidin-6(5H)-yl)-2,4-difluorophenyl)-2,5-dichloropyridine-3-sulfonamide]
0.1 to 0.3 µM	< 0.1 µM	Nc1ncc2c(=O)n(-c3c(F)ccc(NS(=O)(=O)c4cccc5ccccc45)c3F)ccc2n1 [Example 29, N-(3-(2-amino-5-oxopirido[4,3-d]pyrimidin-6(5H)-yl)-2,4-difluorophenyl)naphthalene-1-sulfonamide]
> 1 µM	< 0.1 µM	CNc1ncc2c(=O)n(-c3c(F)ccc(NS(=O)(=O)c4cc(Cl)cnc4OC)c3F)ccc2n1 [Example 32, 5-chloro-N-(2,4-difluoro-3-(2-(methylamino)-5-oxopirido[4,3-d]pyrimidin-6(5H)-yl)phenyl)-2-methoxypyridine-3-sulfonamide]
0.3 to 1 µM	< 0.1 µM	COc1ncc(Cl)cc1S(=O)(=O)Nc1ccc(F)c(-n2c(=O)c3cnc(N)nc3n(C)c2=O)c1F [Example 44, N-(3-(7-amino-1-methyl-2,4-dioxo-1,4-dihydropyrimido[4,5-d]pyrimidin-3(2H)-yl)-2,4-difluorophenyl)-5-chloro-2-methoxypyridine-3-sulfonamide]
0.3 to 1 µM	< 0.1 µM	COc1ncc(Br)cc1S(=O)(=O)Nc1ccc(F)c(-n2c(=O)c3cnc(N)nc3n(C)c2=O)c1F [Example 46, N-(3-(7-amino-1-methyl-2,4-dioxo-1,4-dihydropyrimido[4,5-d]pyrimidin-3(2H)-yl)-2,4-difluorophenyl)-5-bromo-2-methoxypyridine-3-sulfonamide]
